The test system of assay [1] is drug resistant clinical isolate S7 (Resistant to INH). The assay can be described thus: Resazurin assay (REMA) / alamarBlue MIC. Type of assay: cell-based. The settings on record: Mycobacterium tuberculosis, read-out: MIC99 (S7). A general note: Alamar Blue is a resazurin reagent that responds to reducing activity.
Assay [2] has as its system drug resistant clinical isolate S6 (Resistant to INH+Rifampicin). The assay can be described thus: microbe, parasite or virus in culture. The settings on record: Mycobacterium tuberculosis, read-out: MIC99 (S6). The format is cell-based.

In brackets after ≈: the same amount, converted by molar mass.

Regarding `CC(N)c1ncnn1C` (stereo not shown) [SF1, 1-(2-methyl-1,2,4-triazol-3-yl)ethanamine], the MIC99 in assay [1] was determined as 250 µM (≈ 31.5 µg/mL). For the molecule `CC(C)C(N)c1ncnn1C` (stereo not shown) [SF2, 2-methyl-1-(2-methyl-1,2,4-triazol-3-yl)propan-1-amine], the MIC99 in assay [2] and in assay [1] was 125 µM (≈ 19.3 µg/mL) in each case. As for `NCCSc1ncn[nH]1` [SF3, 2-(1H-1,2,4-triazol-5-ylsulfanyl)ethanamine], the MIC99 in assay [1] turned out to be 250 µM (≈ 36.1 µg/mL).
